Legend:
Format in all cases: cell-based
[1] = system: Human breast cancer cell line T-47D; experiment: Caspase cascade activation (Ac-DEVD-R110 fluorogenic substrate) in T-47D cells; settings: T47D, T-47D, incubated 24 or 48 h (Table I), 0.016 to 10 μM final, read-out: Caspase Activation Potency EC50 T-47D
Procedure: (§1) Human breast cancer cell line T-47D, human hepatocellular carcinoma cell line SNU398 and human colon carcinoma cell line HCT116 were grown according to media component mixtures designated by American Type Culture Collection+10% FCS (Invitrogen Corporation), in a 5% CO2-95% humidity incubator at 37° C. T-47D and H1299 cells were maintained at a cell density between 50 and 80% confluency at a cell density of 0.1 to 0.6×10^6 cells/mL. Cells were harvested at 600×g and resuspended at 0.65×10^6 cells/mL into appropriate media+10% FCS. An aliquot of 22.5 μL of cells was added to a well of a 384-well microtiter plate containing 2.5 μL of a 10% DMSO in RPMI-1640 media solution containing 0.16 to 100 μM of 5,7-dihydro-N-(3,5-dimethoxyphenyl)-2-(methylthio)furo[3,4-d]pyrimidin-4-amine or other test compound (0.016 to 10 μM final). An aliquot of 22.5 μL of cells was added to a well of a 384-well microtiter plate containing 2.5 μL of a 10% DMSO in RPMI-1640 media solution without test compound as the control sample. The samples were mixed by agitation and then incubated at 37° C. for 24 or 48 h in a 5% CO2-95% humidity incubator. After incubation, the samples were removed from the incubator and 25 μL of a solution containing 14 μM of N-(Ac-DEVD)-N′-ethoxycarbonyl-R110 (SEQ ID No.:1) fluorogenic substrate (Cytovia, Inc.; WO99/18856), 20% sucrose (Sigma), 20 mM DTT (Sigma), 200 mM NaCl (Sigma), 40 mM Na PIPES buffer pH 7.2 (Sigma), and 500 µg/mL lysolecithin (Calbiochem) was added. The samples were mixed by agitation and incubated at room temperature. Using a fluorescent plate reader (Model SPECTRAfluor Plus, Tecan), an initial reading (T=0) was made approximately 1-2 min after addition of the substrate solution, employing excitation at 485 nm and emission at 530 nm, to determine the background fluorescence of the control sample. After the 3 h incubation, the samples were read for fluorescence as above (T=3 h).
(§2) The Relative Fluorescence Unit values (RFU) were used to calculate the sample readings as follows: RFU(T=3h)−Control RFU(T=0)=Net RFU(T=3h)
(§3) The activity of caspase cascade activation was determined by the ratio of the net RFU value for 5,7-dihydro-N-(3,5-dimethoxyphenyl)-2-(methylthio)furo[3,4-d]pyrimidin-4-amino or other test compound to that of control samples. The EC50 (nM) was determined by a sigmoidal dose-response calculation (Prism 3.0, GraphPad Software Inc.).

[2] = system: human colon carcinoma cell line HCT116; experiment: Caspase cascade activation (Ac-DEVD-R110 fluorogenic substrate) in HCT116 cells; settings: HCT-116, incubated 24 or 48 h (Table I), 0.016 to 10 μM final, read-out: Caspase Activation Potency EC50 HCT116
Procedure: as §1, §2, §3

[3] = system: human hepatocellular carcinoma cell line SNU398; experiment: Caspase cascade activation (Ac-DEVD-R110 fluorogenic substrate) in SNU398 cells; settings: SNU-398, incubated 24 or 48 h (Table I), 0.016 to 10 μM final, read-out: Caspase Activation Potency EC50 SNU398
Procedure: as §1, §2, §3

Row | Compound | EC50 [1] [µM] | EC50 [2] [µM] | EC50 [3] [µM]
1 | COc1cc(Nc2nc(Cl)nc3c2CN(C(=O)OCC2c4ccccc4-c4ccccc42)C3)cc(N(C)C)c1 [Example 30, (9H-Fluoren-9-yl)methyl 4-(3-(dimethylamino)-5-methoxyphenylamino)-2-chloro-5H-pyrrolo[3,4-d]pyrimidine-6(7H)-carboxylate] | 1.57 | > 10 | > 10
2 | COc1cc(Nc2nc(C)nc3c2COC3)cc(OC)c1 [Example 11, 5,7-Dihydro-N-(3,5-dimethoxyphenyl)-2-methylfuro[3,4-d]pyrimidin-4-amine] | 1.29 | > 10 | > 10
3 | COc1ccc(N(C)c2nc(Cl)nc3c2CN(C(=O)OCC2c4ccccc4-c4ccccc42)C3)cc1 [Example 31, (9H-Fluoren-9-yl)methyl 4-(N-(4-methoxyphenyl)-N-methylamino)-2-chloro-5H-pyrrolo[3,4-d]pyrimidine-6(7H)-carboxylate] | > 10 | > 10 | 5
4 | Cc1cc(Nc2nc(S(C)(=O)=O)nc3c2COC3)[nH]n1 [Example 13, 5,7-Dihydro-N-(3-methyl-1H-pyrazol-5-yl)-2-(methylsulfonyl)furo[3,4-d]pyrimidin-4-amine] | > 10 | > 10 | > 10
5 | CS(=O)(=O)c1nc2c(c(Sc3ccc(NC(=O)C4CC4)cc3)n1)COC2 [Example 15, N-(4-(5,7-Dihydro-2-(methylsulfonyl)furo[3,4-d]pyrimidin-4-ylthio)phenyl)cyclopropanecarboxamide] | 14.1 | ≥ 14.2 | 9.07
6 | CSc1nc2c(c(Nc3ccc(NC(=O)c4ccccc4)cc3)n1)CCC2 [Example 22, N-(4-(6,7-Dihydro-2-(methylthio)-5H-cyclopenta[d]pyrimidin-4-ylamino)phenyl)benzamide] | > 10 | > 10 | > 10
7 | Cc1cc(Nc2nc(N3CCN(C)CC3)nc3c2COC3)[nH]n1 [Example 32, 5,7-Dihydro-N-(3-methyl-1H-pyrazol-5-yl)-2-(4-methylpiperazin-1-yl)furo[3,4-d]pyrimidin-4-amine] | > 10 | > 10 | > 10
8 | Cc1cc(Nc2nc(N3CCN(C)CC3)nc3c2CNC3)[nH]n1 [Example 28, [2-(4-Methyl-piperazin-1-yl)-6,7-dihydro-5H-pyrrolo[3,4-d]pyrimidin-4-yl]-(5-methyl-2H-pyrazol-3-yl)-amine] | > 10 | > 10 | > 10
9 | CSc1nc2c(c(Nc3cccc(Br)c3)n1)CCC2 [Example 19, N-(3-Bromophenyl)-6,7-dihydro-2-(methylthio)-5H-cyclopenta[d]pyrimidin-4-amine] | > 10 | > 10 | > 10
10 | Cc1cc(Nc2nc3c(c(Sc4ccc(NC(=O)C5CC5)cc4)n2)COC3)[nH]n1 [Example 16, N-(4-(2-(3-Methyl-1H-pyrazol-5-ylamino)-5,7-dihydrofuro[3,4-d]pyrimidin-4-ylthio)phenyl)cyclopropanecarboxamide] | > 10 | > 10 | > 10
11 | Cc1cc(Nc2nc(Cl)nc3c2CN(C(=O)OCC2c4ccccc4-c4ccccc42)C3)[nH]n1 [Example 17, (9H-Fluoren-9-yl)methyl 4-(3-methyl-1H-pyrazol-5-ylamino)-2-chloro-5H-pyrrolo[3,4-d]pyrimidine-6(7H)-carboxylate] | > 10 | > 10 | > 10
12 | COc1cc(Nc2nc(SC)nc3c2CCC3)cc(OC)c1 [Example 21, 6,7-Dihydro-N-(3,5-dimethoxyphenyl)-2-(methylthio)-5H-cyclopenta[d]pyrimidin-4-amine] | 0.063 | > 10 | 2.56
13 | Cc1nc2c(c(Nc3cccc(Br)c3)n1)COC2 [Example 10, 5,7-Dihydro-N-(3-bromophenyl)-2-methylfuro[3,4-d]pyrimidin-4-amine] | > 10 | > 10 | > 10
14 | O=C(Nc1ccc(Sc2nc(Cl)nc3c2CN(C(=O)OCC2c4ccccc4-c4ccccc42)C3)cc1)C1CC1 [Example 29, (9H-Fluoren-9-yl)methyl 2-chloro-4-((4-(cyclopropanecarboxamido)phenyl)sulfanyl)-5H-pyrrolo[3,4-d]pyrimidine-6(7H)-carboxylate] | > 10 | > 10 | > 10
15 | COc1cc(Nc2ncnc3c2COC3)cc(OC)c1 [Example 9, 5,7-Dihydro-N-(3,5-dimethoxyphenyl)-furo[3,4-d]pyrimidin-4-amine] | 1.19 | > 10 | > 10
16 | Cc1cc(Nc2nc(Sc3ccc(NC(=O)C4CC4)cc3)nc3c2COC3)[nH]n1 [Example 14, N-(4-(4-(3-Methyl-1H-pyrazol-5-ylamino)-5,7-dihydrofuro[3,4-d]pyrimidin-2-ylthio)phenyl)cyclopropanecarboxamide] | 2.74 | 2.42 | 1.36
17 | O=C(Nc1ccc(Nc2ncnc3c2CCC3)cc1)c1ccccc1 [Example 26, N-(4-(6,7-Dihydro-5H-cyclopenta[d]pyrimidin-4-ylamino)phenyl)benzamide] | > 10 | > 10 | > 10
18 | COc1ccc(N(C)c2nc(SC)nc3c2COC3)cc1 [Example 8, 5,7-Dihydro-N-(4-methoxyphenyl)-N-methyl-2-(methylthio)furo[3,4-d]pyrimidin-4-amine] | 3.19 | 5.15 | 2.56
19 | CSc1nc2c(c(Nc3cc(C)n[nH]3)n1)COC2 [Example 12, 5,7-Dihydro-N-(3-methyl-1H-pyrazol-5-yl)-2-(methylthio)furo[3,4-d]pyrimidin-4-amine] | > 10 | > 10 | > 10
20 | CSc1nc2c(c(Nc3cc(C)n[nH]3)n1)CCC2 [Example 20, 6,7-Dihydro-N-(5-methyl-1H-pyrazol-3-yl)-2-(methylthio)-5H-cyclopenta[d]pyrimidin-4-amine] | > 10 | ≥ 10.6 | 2.69

Source: patent US20080113946A1, “N-aryl-5,7-dihydrofuro[3,4-d]pyrimidin-4-amines and analogs as activators of caspases and inducers of apoptosis and the use thereof” (Cyntovia, Inc., priority 2006, published 2008)
